# Data from patent publication US8222419B2, “Oxepin derivative” (Nippon Zoki Pharmaceutical Co., Ltd., priority 2006, dated 2012).
# Read-outs that look alike come from different tables or passages of the source.
# Legend:
# [1] = molecular target: T1, H1 receptor (Mus musculus, UniProt P70174); experiment: Murine intracranial H1 receptor content (ex vivo), 3H-pyrilamine binding in brain homogenate after oral dosing; details: for ID50 (mg/kg)/ED50 (mg/kg): ID50 of intracranial receptor binding test (Table 7) divided by ED50 of histamine-induced vascular hyperpermeability test (Table 6); for ED50: mouse
# T1 construct: The excised brain tissue was homogenized with Polytron; from tissue; host or cells: entire brain except cerebellum and medulla oblongata, homogenate
# T1 sequence (P70174 whole entry): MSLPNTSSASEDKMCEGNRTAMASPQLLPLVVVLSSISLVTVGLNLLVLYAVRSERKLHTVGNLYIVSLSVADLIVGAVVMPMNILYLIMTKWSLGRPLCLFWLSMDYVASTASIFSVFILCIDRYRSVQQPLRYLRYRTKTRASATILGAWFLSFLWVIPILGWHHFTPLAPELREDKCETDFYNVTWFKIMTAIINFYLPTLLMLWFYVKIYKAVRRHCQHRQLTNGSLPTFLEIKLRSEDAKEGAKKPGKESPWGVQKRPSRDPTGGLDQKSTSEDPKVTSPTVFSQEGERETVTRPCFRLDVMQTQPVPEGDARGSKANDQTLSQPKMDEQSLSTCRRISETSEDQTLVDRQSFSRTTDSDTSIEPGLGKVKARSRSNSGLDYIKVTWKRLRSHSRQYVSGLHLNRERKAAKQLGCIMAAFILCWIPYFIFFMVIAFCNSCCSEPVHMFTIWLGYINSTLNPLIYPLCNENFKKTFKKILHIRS
# [2] = test system: histamine-induced vascular hyperpermeability; experiment: Rat histamine-induced vascular hyperpermeability reaction (in vivo antihistamine action); details: SD male rat, oral administration 1 hour before intracutaneous histamine (20 μg/location), Evans Blue leakage after 30 minutes
# Method: Rat Histamine-Induced Vascular Hyperpermeability Reaction (in Vivo Antihistamine Action)
# An SD male rat (SPF) of 180 g in weight was previously fed for one week or more by allowing the rat to take a solid feed and tap water ad libitum, under the environment setting of a temperature of 22° C., humidity of 55% and an artificial illumination of 12 hours a day (light phase 8 am to 8 pm), and the rat was fasted overnight to be used for the experiment. Histamine-dihydrochloride (hereinafter referred to as histamine) and Evans Blue were used by dissolving each in physiological saline upon use. A substance to be tested was dissolved in water for injection or suspended in 0.5% carboxymethyl cellulose sodium, and the rat was orally administered with the solution or suspension (dose volume: 5 mL/kg body weight). After 1 hour from the administration, the physiological saline and the histamine solution were each intracutaneously injected to two locations (20 μg/0.05 ml/location) each on a back part of the rat of which hair was sheared with an electric clipper while anesthetizing with an ether. A 0.5% Evans Blue-containing physiological saline was injected intravenously to the tail (1 mL/200 g body weight) of the rat immediately before the intracutaneous injection of the histamine.
# After 30 minutes, the animal was decapitated, and allowed to bleed lethally, and the skin was removed to measure an amount of leaked pigment in the blue-stained portion. The measurement of the amount of leaked pigment was carried out as follows. Skins of the pigment leaking site were cut out at two locations, 1 mL of a 2 mol/L aqueous potassium hydroxide solution was added thereto in a test tube, and the test tube was allowed to stand overnight at 37° C. to dissolve. Thereafter, 6 mL of a 1:3 mixed solution of 0.67 mol/L phosphoric acid and acetone was added to the solution, and the mixture was vigorously shaken for 10 minutes. Thereafter, the mixture was filtered, and the absorbance of the filtrate at 620 nm was measured. The absorbance obtained from the two locations of the sites injected with physiological saline, obtained as blank value, was used for a compensation. The amount of leaked pigment was calculated from the calibration curve of Evans Blue at 620 nm.
# [3] = oral administration, brain excised after 1 hour, 3H-pyrilamine 2 nmol/L binding to brain homogenate, read-out: ID50 (the source's name)
melting point,Compound,further results
140 °C (dec.),CN1CCC(=C2c3ccccc3COc3ccc(CN)cc32)CC1.Cl.Cl,
270 °C (dec.),CCOC(=O)c1ccc2c(c1)C(=C1CCN(C)CC1)c1ccccc1CO2.Cl,
118 °C (dec.),CN1CCC(=C2c3ccccc3COc3ccc(C=CCO)cc32)CC1.Cl,
175 to 178 °C,"CCOC(=O)CNC(=O)c1ccc2c(c1)C(=C1CCN(C)CC1)c1ccccc1CO2 [Compound 3, Ethyl {[11-(1-methylpiperidin-4-ylidene)-6,11-dihydrodibenz[b,e]oxepin-2-carbonyl]amino}acetate]",
145 to 148 °C,"CN1CCC(=C2c3ccccc3COc3ccc(CNC(=O)OC(C)(C)C)cc32)CC1 [Compound 9, tert-Butyl [11-(1-methylpiperidin-4-ylidene)-6,11-dihydrodibenz[b,e]oxepin-2-ylmethyl]carbamate]",
195 to 196 °C,"CC(=O)NCc1ccc2c(c1)C(=C1CCN(C)CC1)c1ccccc1CO2 [Compound 15, N-[11-(1-Methylpiperidin-4-ylidene)-6,11-dihydrodibenz[b,e]oxepin-2-ylmethyl]acetamide]",
183 °C (dec.),"CN1CCC(=C2c3ccccc3COc3ccc(NC(N)=O)cc32)CC1 [Compound 17, [11-(1-Methylpiperidin-4-ylidene)-6,11-dihydrodibenz[b,e]oxepin-2-yl]urea]","ID50 (mg/kg)/ED50 (mg/kg) [1]: 60.6; ED50 [1, 3]: 37.6 mg/kg; ED50 [2]: 0.62 mg/kg"
226 °C (dec.),"CN1CCC(=C2c3ccccc3COc3ccc(CC(=O)O)cc32)CC1 [Compound 24, [11-(1-Methylpiperidin-4-ylidene)-6,11-dihydrodibenz[b,e]oxepin-2-yl]acetic acid]","ID50 (mg/kg)/ED50 (mg/kg) [1]: 53.3; ED50 [1, 3]: 1.6 mg/kg; ED50 [2]: 0.03 mg/kg"
144 °C (dec.),"CN1CCC(=C2c3ccccc3COc3ccc(CNC(=O)CCC(=O)O)cc32)CC1 [Compound 26, N-[11-(1-Methylpiperidin-4-ylidene)-6,11-dihydrodibenz[b,e]oxepin-2-ylmethyl]succinamic acid]",
150 to 152 °C,"CCOC(=O)CCC(=O)NCc1ccc2c(c1)C(=C1CCN(C)CC1)c1ccccc1CO2 [Compound 27, Ethyl N-[11-(1-methylpiperidin-4-ylidene)-6,11-dihydrodibenz[b,e]oxepin-2-ylmethyl]succinamate]",
124 °C (dec.),"CCOC(=O)c1ccc2c(c1)C(=C1CCN(C)CC1)c1ccccc1OC2 [Compound 29, Ethyl 11-(1-methylpiperidin-4-ylidene)-6,11-dihydrodibenz[b,e]oxepin-9-carboxylate]",
188 °C (dec.),"CN1CCC(=C2c3ccccc3COc3c(C=CC(=O)O)cccc32)CC1 [Compound 32, 3-[11-(1-Methylpiperidin-4-ylidene)-6,11-dihydrodibenz[b,e]oxepin-4-yl]acrylic acid]",
210 °C (dec.),"CN1CCC(=C2c3ccc(C(=O)O)cc3COc3ccccc32)CC1 [Compound 33, 11-(1-Methylpiperidin-4-ylidene)-6,11-dihydrodibenz[b,e]oxepin-8-carboxylic acid]",
175 to 178 °C,"CN1CCC(=C2c3ccccc3COc3c(C#N)cccc32)CC1 [Compound 34, 11-(1-Methylpiperidin-4-ylidene)-6,11-dihydrodibenz[b,e]oxepin-4-carbonitrile]",
124 °C (dec.),"CCOC(=O)c1cccc2c1OCc1ccccc1C2=C1CCN(C)CC1 [Compound 36, Ethyl 11-(1-methylpiperidin-4-ylidene)-6,11-dihydrodibenz[b,e]oxepin-4-carboxylate]",
233 °C (dec.),"CN1CCC(=C2c3ccccc3COc3c(C(=O)O)cccc32)CC1 [Compound 37, 11-(1-Methylpiperidin-4-ylidene)-6,11-dihydrodibenz[b,e]oxepin-4-carboxylic acid]",

# Continued, compound first:
Compound,melting point,further results
COC(=O)C=Cc1ccc2c(c1)C(=C1CCN(C)CC1)c1ccccc1CO2.Cl,244 °C (dec.),
"CN1CCC(=C2c3ccccc3COc3ccc(C(=O)O)cc32)CC1 [Compound 1, 11-(1-Methylpiperidin-4-ylidene)-6,11-dihydrodibenz[b,e]oxepin-2-carboxylic acid]",,"ID50 (mg/kg)/ED50 (mg/kg) [1]: 27.2; ED50 [1, 3]: 1.25 mg/kg; ED50 [2]: 0.046 mg/kg"
"CN1CCC(=C2c3ccccc3COc3ccc(Br)cc32)CC1 [Compound 4, 4-(2-Bromo-6H-dibenz[b,e]oxepin-11-ylidene)-1-methylpiperidine]",131 to 132 °C,
"CN1CCC(=C2c3ccccc3COc3ccc(C=CC(=O)O)cc32)CC1 [Compound 7, 3-[11-(1-Methylpiperidin-4-ylidene)-6,11-dihydrodibenz[b,e]oxepin-2-yl]acrylic acid]",145 °C (dec.),"ID50 (mg/kg)/ED50 (mg/kg) [1]: 4.4; ED50 [1, 3]: 1.32 mg/kg; ED50 [2]: 0.3 mg/kg"
"CN1CCC(=C2c3ccccc3COc3ccc(-c4nn[nH]n4)cc32)CC1 [Compound 8, 1-Methyl-4-[2-(2H-tetrazol-5-yl)-6H-dibenz[b,e]oxepin-11-ylidene]piperidine]",225 °C (dec.),
"CN1CCC(=C2c3ccccc3COc3cc(Br)ccc32)CC1 [Compound 12, 4-(3-Bromo-6H-dibenz[b,e]oxepin-11-ylidene)-1-methylpiperidine]",127 to 128 °C,
"CN1CCC(=C2c3ccccc3COc3cc(C#N)ccc32)CC1 [Compound 13, 11-(1-Methylpiperidin-4-ylidene)-6,11-dihydrodibenz[b,e]oxepin-3-carbonitrile]",175 to 176 °C,
"CCOC(=O)NCc1ccc2c(c1)C(=C1CCN(C)CC1)c1ccccc1CO2 [Compound 14, Ethyl [11-(1-methylpiperidin-4-ylidene)-6,11-dihydrodibenz[b,e]oxepin-2-ylmethyl]carbamate]",135 to 136 °C,
"Cc1ccc2c(c1)C(=C1CCN(C)CC1)c1ccccc1CO2 [Compound 16, 1-Methyl-4-(2-methyl-6H-dibenz[b,e]oxepin-11-ylidene)-piperidine]",133 to 134 °C,
"CN1CCC(=C2c3ccccc3COc3cc(C(=O)O)ccc32)CC1 [Compound 18, 11-(1-Methylpiperidin-4-ylidene)-6,11-dihydrodibenz[b,e]oxepin-3-carboxylic acid]",208 to 212 °C,
"CN1CCC(=C2c3ccccc3COc3ccc(C(=O)NCCO)cc32)CC1 [Compound 19, N-(2-Hydroxyethyl)-11-(1-methylpiperidin-4-ylidene)-6,11-dihydrodibenz[b,e]oxepin-2-carboxamide]",234 to 236 °C,
"CN1CCC(=C2c3ccccc3COc3ccc(CNC(=O)c4ccccc4)cc32)CC1 [Compound 20, N-[11-(1-Methylpiperidin-4-ylidene)-6,11-dihydrodibenz[b,e]oxepin-2-ylmethyl]benzamide]",218 to 219 °C,
"CN1CCC(=C2c3ccccc3COc3ccc(CO)cc32)CC1 [Compound 21, [11-(1-Methylpiperidin-4-ylidene)-6,11-dihydrodibenz[b,e]oxepin-2-yl]methanol]",140 to 143 °C,
"CN1CCC(=C2c3ccccc3COc3ccc(C=O)cc32)CC1 [Compound 23, 11-(1-Methylpiperidin-4-ylidene)-6,11-dihydrodibenz[b,e]oxepin-2-carboaldehyde]",157 to 160 °C,
"CN1CCC(=C2c3cc(C(=O)O)ccc3COc3ccccc32)CC1 [Compound 28, 11-(1-Methylpiperidin-4-ylidene)-6,11-dihydrodibenz[b,e]oxepin-9-carboxylic acid]",251 °C (dec.),
"CCOC(=O)C=Cc1cccc2c1OCc1ccccc1C2=C1CCN(C)CC1 [Compound 31, Ethyl 3-[11-(1-methylpiperidin-4-ylidene)-6,11-dihydrodibenz[b,e]oxepin-4-yl]acrylate]",126 to 127 °C,
"CCOC(=O)C=Cc1ccc2c(c1)OCc1ccccc1C2=C1CCN(C)CC1 [Compound 35, Ethyl 3-[11-(1-methylpiperidin-4-ylidene)-6,11-dihydrodibenz[b,e]oxepin-3-yl]acrylate]",173 to 175 °C,
"CN1CCC(=C2c3ccccc3COc3ccc(CCC(=O)O)cc32)CC1.Cl [Compound 43, 3-[11-(1-Methylpiperidin-4-ylidene)-6,11-dihydrodibenz[b,e]oxepin-2-yl]propionate hydrochloride]",,"ID50 (mg/kg)/ED50 (mg/kg) [1]: >20.0; ED50 ([1]; po, 1 h, read-out: ID50): < 2 mg/kg; ED50 [2]: 0.1 mg/kg"
"CN1CCC(=C2c3ccccc3CC(=O)c3sccc32)CC1 [Ketotifen, reference compound]",,ED50 [2]: 0.54 mg/kg
